System: biosynthesis of cholesterol
Test: CSI screen: inhibition of cholesterol biosynthesis (14C-acetate incorporation into nonsaponifiable lipid by rat liver homogenate)
Assay type: biochemical
Conditions: 50% inhibition of sterol synthesis over a one-hour period
Protocol: The ability of compounds of the present invention to inhibit the biosynthesis of cholesterol was measured by a method (designated CSI screen) which utilizes the procedure described by R. E. Dugan, et al, Archiv. Biochem. Biophys., (1972), 152, 21-27. In this method, the level of HMG-CoA enzyme activity in standard laboratory rats is increased by feeding the rats a chow diet containing 5% cholestryramine for four days, after which the rats are sacrificed.
The rat livers are homogenized, and the incorporation of […] into nonsaponifiable lipid by the rat liver homogenate is measured. The micromolar concentration of compound required for 50% inhibition of sterol synthesis over a one-hour period is measured, and expressed as an IC50 value.

C=C1CC2(C)CC1C(c1ccccc1)=C2/C=C/[C@@H]1C[C@@H](O)CC(=O)O1 (relative stereo)
IC50: 440 nM
